≈ marks a conversion by molar mass, not a printed value. Calls of active or inactive are those of the source. No cut-off for these calls is given here.
Columns and labels:
[1] = Half life in Beagle dog at 5.4 mg/kg, po measured upto 24 hrs using PVP-ASD form of sample by LC-MS/MS analysis; format: ADME, organism-based, Canis lupus familiaris; details: in vivo
[2] = Brain to blood ratio in OF1 mouse at 1 mg/kg, iv measured at 1 hr post dose by LC-MS/MS analysis; format: ADME, organism-based; details: brain and blood, read-out: BBR
[3] = Half life in Sprague-Dawley rat at 3 mg/kg, po or iv measured upto 24 hrs by LC-MS/MS analysis; format: ADME, organism-based; details: in vivo
[4] = target: Phosphatidylinositol 4,5-bisphosphate 3-kinase catalytic subunit beta isoform (Homo sapiens, UniProt P42338); assay: Inhibition of PI3Kbeta (unknown origin) using L-alpha-phosphatidylinositol as substrate in presence of ATP by Kinase Glo luminescence assay
Chain of Phosphatidylinositol 4,5-bisphosphate 3-kinase catalytic subunit beta isoform (P42338 whole entry, canonical isoform): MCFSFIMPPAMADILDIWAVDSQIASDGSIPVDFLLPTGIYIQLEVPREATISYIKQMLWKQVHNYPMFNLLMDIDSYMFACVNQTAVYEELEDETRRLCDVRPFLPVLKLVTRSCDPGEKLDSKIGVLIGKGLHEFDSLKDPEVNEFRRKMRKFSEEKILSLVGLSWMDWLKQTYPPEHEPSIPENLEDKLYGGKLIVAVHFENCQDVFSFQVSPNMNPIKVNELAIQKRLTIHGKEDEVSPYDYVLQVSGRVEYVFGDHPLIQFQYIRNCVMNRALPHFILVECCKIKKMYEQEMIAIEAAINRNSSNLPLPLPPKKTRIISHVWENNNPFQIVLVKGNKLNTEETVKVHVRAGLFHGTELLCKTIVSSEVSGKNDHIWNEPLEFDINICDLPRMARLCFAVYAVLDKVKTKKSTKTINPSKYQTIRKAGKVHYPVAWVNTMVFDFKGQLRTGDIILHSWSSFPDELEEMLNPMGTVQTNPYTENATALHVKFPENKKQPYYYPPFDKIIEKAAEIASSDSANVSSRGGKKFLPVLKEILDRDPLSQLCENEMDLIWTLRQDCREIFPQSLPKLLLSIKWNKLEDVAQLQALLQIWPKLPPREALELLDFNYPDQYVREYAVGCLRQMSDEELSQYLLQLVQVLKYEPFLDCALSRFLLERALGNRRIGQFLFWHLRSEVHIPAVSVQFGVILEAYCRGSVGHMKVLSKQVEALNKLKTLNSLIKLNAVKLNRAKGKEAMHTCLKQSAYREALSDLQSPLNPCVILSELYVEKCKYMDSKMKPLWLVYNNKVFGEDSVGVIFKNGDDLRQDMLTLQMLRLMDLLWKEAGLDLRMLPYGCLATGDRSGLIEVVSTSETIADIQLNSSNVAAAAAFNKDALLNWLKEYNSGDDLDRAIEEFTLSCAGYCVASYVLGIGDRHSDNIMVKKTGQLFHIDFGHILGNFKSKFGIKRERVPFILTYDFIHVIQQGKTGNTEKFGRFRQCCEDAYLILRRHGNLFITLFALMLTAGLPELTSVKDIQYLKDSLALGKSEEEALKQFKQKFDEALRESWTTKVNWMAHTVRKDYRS

[5] = target: T1, Phosphatidylinositol 4,5-bisphosphate 3-kinase catalytic subunit delta isoform (Homo sapiens, UniProt O00329); assay: Inhibition of PI3Kdelta (unknown origin) using phosphatidylinositol as substrate measured for 15 to 60 mins by TR-FRET based Adapta universal kinase assay
T1 sequence (O00329 whole entry): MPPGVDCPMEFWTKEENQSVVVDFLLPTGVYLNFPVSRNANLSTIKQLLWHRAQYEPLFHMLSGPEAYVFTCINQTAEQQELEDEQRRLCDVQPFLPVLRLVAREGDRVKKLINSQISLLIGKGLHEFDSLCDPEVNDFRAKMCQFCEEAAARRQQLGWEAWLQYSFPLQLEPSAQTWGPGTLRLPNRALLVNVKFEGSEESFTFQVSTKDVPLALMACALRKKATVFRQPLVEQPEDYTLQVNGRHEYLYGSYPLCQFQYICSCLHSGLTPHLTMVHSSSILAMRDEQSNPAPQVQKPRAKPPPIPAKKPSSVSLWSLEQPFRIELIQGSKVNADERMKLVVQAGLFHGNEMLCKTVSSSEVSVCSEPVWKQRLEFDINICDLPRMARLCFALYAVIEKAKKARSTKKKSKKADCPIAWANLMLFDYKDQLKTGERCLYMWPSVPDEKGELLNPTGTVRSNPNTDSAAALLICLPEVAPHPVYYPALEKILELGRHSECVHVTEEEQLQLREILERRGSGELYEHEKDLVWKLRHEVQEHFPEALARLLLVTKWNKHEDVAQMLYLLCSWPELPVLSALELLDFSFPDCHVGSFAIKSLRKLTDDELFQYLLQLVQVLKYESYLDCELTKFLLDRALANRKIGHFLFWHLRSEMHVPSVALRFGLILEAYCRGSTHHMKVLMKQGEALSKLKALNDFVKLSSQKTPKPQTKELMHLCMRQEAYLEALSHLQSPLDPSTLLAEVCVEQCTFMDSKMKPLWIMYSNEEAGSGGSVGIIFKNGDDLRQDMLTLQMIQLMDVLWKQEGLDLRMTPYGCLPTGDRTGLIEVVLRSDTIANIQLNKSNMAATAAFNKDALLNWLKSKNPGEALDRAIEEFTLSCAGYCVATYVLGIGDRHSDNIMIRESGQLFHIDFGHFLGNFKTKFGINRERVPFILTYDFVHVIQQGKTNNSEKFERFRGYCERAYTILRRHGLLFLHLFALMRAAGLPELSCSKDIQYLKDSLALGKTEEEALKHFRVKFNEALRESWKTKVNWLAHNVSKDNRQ

[6] = Inhibition of wild type PI3K in human HCC1187 cells assessed as reduction in phosphorylation of AKT at Ser473 residue by Western blot analysis; format: cell-based
[7] = Half life in OF1 mouse at 10 mg/kg,po or 3 mg/kg,iv measured upto 24 hrs by LC-MS/MS analysis; format: ADME, organism-based; details: in vivo
[8] = Tmax in beagle dog at 0.3 mg/kg, po measured upto 24 hrs by LC-MS/MS analysis; format: ADME, organism-based, Canis lupus familiaris; details: in vivo
[9] = Lipophilicity, logD of compound at pH 6.5; format: physicochemical; details: buffer
[10] = Aqueous solubility of compound in buffer at pH 4 by HPLC analysis; format: physicochemical
[11] = Aqueous solubility of compound in buffer at pH 6.8 by HPLC analysis; format: physicochemical
[12] = AUCinfinity in Beagle dog at 6 mg/kg, po measured upto 24 hrs using crystalline form of sample by LC-MS/MS analysis; format: ADME, organism-based, Canis lupus familiaris; parameters: dose 6 mg/kg, time < 24 hrs, route po; details: in vivo
[13] = Cmax in Beagle dog at 6 mg/kg, po measured upto 24 hrs using crystalline form of sample by LC-MS/MS analysis; format: ADME, organism-based, Canis lupus familiaris; parameters: dose 6 mg/kg, time < 24 hrs, route po; details: in vivo
[14] = Tmax in Beagle dog at 6 mg/kg, po measured upto 24 hrs using crystalline form of sample by LC-MS/MS analysis; format: ADME, organism-based, Canis lupus familiaris; details: in vivo
[15] = Apparent permeability in human Caco-2 cells assessed as Km by Michaelis-Menten based analysis; format: ADME, cell-based; details: read-out: Km(app)
Mus musculus = assay: In vivo Inhibition of AKT phosphorylation at Ser473 residue in athymic nude mouse xenografted with rat Rat1-myr-p110alpha cells at 20 mg/kg, po qd measured after 1 to 10 hrs; format: functional, organism-based; details: time 1-10 hrs
Rat1 [16] = assay: Antitumor activity at rat Rat1 cells expressing myr-p110alpha xenografted in athymic nude mouse assessed as T/C ratio at 3 mg/kg, po qd measured after 14 to 22 days; format: functional; details: time 14-22 day
[17] = In vivo Inhibition of AKT phosphorylation at Ser473 residue in plasma of athymic nude mouse xenografted with rat Rat1 cells expressing myr-p110alpha; format: functional, organism-based
[18] = Effect on blood glucose level in athymic nude mouse xenografted with rat Rat1 cells expressing myr-p110alpha at 3 to 20 mg/kg, po qd measured upto 14 hrs by glucometer analysis; format: toxicity, organism-based; details: in vivo, dose 3-20 mg/kg
[19] = Effect on blood glucose level in athymic nude mouse xenografted with rat Rat1 cells expressing myr-p110alpha assessed as fold increase at 40 mg/kg, po bid measured for 2 to 10 hrs by glucometer analysis; format: toxicity, organism-based; details: in vivo, time 2-10 hrs
Rat1 [20] = assay: Antitumor activity at rat Rat1 cells expressing myr-p110delta xenografted in athymic nude mouse assessed as T/C ratio at 20 mg/kg, po bid measured after 7 to 15 days; format: functional; details: time 7-15 day
[21] = Cmax in athymic nude mouse xenografted with rat Rat1 cells expressing myr-p110alpha at 3 mg/kg, po measured after 8 days by LC-MS/MS analysis; format: ADME, organism-based; parameters: time 8 day, dose 3 mg/kg, route po; details: in vivo
[22] = Cmax in athymic nude mouse xenografted with rat Rat1 cells expressing myr-p110alpha at 20 mg/kg, po measured after 8 days by LC-MS/MS analysis; format: ADME, organism-based; parameters: time 8 day, dose 20 mg/kg, route po; details: in vivo
[23] = Dose normalized AUC(0 to Tlast) in athymic nude mouse xenografted with rat Rat1 cells expressing myr-p110alpha at 10 mg/kg, po measured after 8 days by LC-MS/MS analysis; format: ADME, organism-based; details: in vivo, 192 h, time 8 day
[24] = Dose normalized AUC(0 to Tlast) in athymic nude mouse xenografted with rat Rat1 cells expressing myr-p110alpha at 40 mg/kg, po measured after 8 days by LC-MS/MS analysis; format: ADME, organism-based; details: in vivo, 192 h, time 8 day
cells = details: Rattus norvegicus, Rat1, 1 h

- half-life [1]: 9.9 h
- Kp at 1 h [2]: 0.05
- half-life [3]: 3.3 h
- IC50 [4]: 8.3 nM
- IC50 [5]: 8.3 nM
- IC50 [6]: 94 nM
- half-life [7]: 2 h
- Tmax [8]: 1 h
- logD [9]: 2
- solubility [10]: 31 µM (≈ 14.1 µg/mL)
- solubility [11]: 29 µM (≈ 13.2 µg/mL)
- AUC(0-inf) [12]: 44.6 µM·h
- Cmax [13]: 1240 nM
- Tmax [14]: 4 h
- Km [15]: > 30 µM
- IC50 ([17]; Mus musculus): 200 nM
- Cmax [21]: 1480 nM
- Cmax [22]: 2910 nM
- AUC/dose [23]: 1.57 µM·h
- AUC/dose [24]: 1.35 µM·h
- IC50 (cells): 26 nM
Structure (SMILES): C[C@H]1OC(=O)N(c2nc(-c3cnc(N)nc3C(F)(F)F)cc(N3CCOCC3)n2)[C@H]1CO
- inhibition (Mus musculus): Active
- T/C (Rat1 [16]): 0.43
- IC80 [17]: 800 nM
- Activity [18]: Non-Toxic
- fold change (FC) [19]: 2
- T/C (Rat1 [20]): -0.52
